The record followed here is PubChem BioAssay (NCI).

Test systems include COLO 205 colon; SF-295 CNS; T-47D breast; SK-MEL-28 melanoma; 786-0 renal; MDA-MB-231 breast; SK-MEL-2 melanoma; PC-3 prostate; UACC-62 melanoma; SN12C renal.
Assay in all cases: growth of human tumour cells (NCI), 48 h

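Dose response: 5 concentrations. Exposure: 48 h. Format: 96-well plates. Endpoint: linear interpolation; highest concentration if not reached. TGI: concentration producing complete growth inhibition.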 Bounds are passed on as bounds.

Regarding `CN(C)CCNC(=O)c1cccc2nc3c(C(=O)NCCN(C)C)cccc3nc12`, the TGI turned out to be 1.87 µM in the experiment with COLO 205 colon; 6.46 µM in the experiment on SF-295 CNS; 34.5 µM with T-47D breast; 4.64 µM in the experiment with SK-MEL-28 melanoma; 9.88 µM in the experiment with 786-0 renal; 3.4 µM with MDA-MB-231 breast. The TGI in the experiment on SK-MEL-2 melanoma is 4.16 µM; in the experiment with PC-3 prostate it was 2.67 µM; in the experiment on UACC-62 melanoma it was 9.6 µM; with SN12C renal it was 5.58 µM.

Turning to `CCOC(=O)[C@@]1(C)CC(O)C(=O)N1C` (some centres undefined), the TGI in the experiment with COLO 205 colon, in the experiment on SF-295 CNS, with T-47D breast, in the experiment on SK-MEL-28 melanoma, in the experiment on 786-0 renal and with MDA-MB-231 breast was above 100 µM in each case. The TGI with SK-MEL-2 melanoma, in the experiment with PC-3 prostate, in the experiment with UACC-62 melanoma and in the experiment on SN12C renal was above 100 µM each time.

On to `CCCCCCCCP(=O)(O)OP(=O)(O)OCC1OC(n2ccc(N)nc2=O)C(O)C1O` (centres undefined), for which the TGI in the experiment with COLO 205 colon, in the experiment with SF-295 CNS, in the experiment with T-47D breast, in the experiment with SK-MEL-28 melanoma, in the experiment on 786-0 renal and with MDA-MB-231 breast was above 100 µM in each case. Further, the TGI with SK-MEL-2 melanoma, in the experiment with PC-3 prostate, with UACC-62 melanoma and in the experiment on SN12C renal was above 100 µM throughout.

As to `CN(CCCNC(=O)c1nn(C)c2c1Cc1ccccc1-2)CCCNC(=O)c1nn(C)c2c1Cc1ccccc1-2`, the TGI came out at 30.2 µM in the experiment with COLO 205 colon; 34.7 µM in the experiment on SF-295 CNS; 61.8 µM in the experiment on T-47D breast; 38.2 µM in the experiment on SK-MEL-28 melanoma; 24.5 µM with 786-0 renal; 36.1 µM with MDA-MB-231 breast. Moreover, the TGI was 32 µM in the experiment on SK-MEL-2 melanoma, 34.1 µM with PC-3 prostate, 35.9 µM in the experiment with UACC-62 melanoma and 33.8 µM with SN12C renal.

In the case of `COC(=O)C(Cc1c[nH]c2ccccc12)NP(=O)(O)OCC1OC(n2cc(Br)c(=O)[nH]c2=O)CC1O` (centres undefined), the TGI in the experiment with COLO 205 colon, with SF-295 CNS, in the experiment with T-47D breast, in the experiment on SK-MEL-28 melanoma, in the experiment with 786-0 renal and in the experiment with MDA-MB-231 breast was above 100 µM throughout. Further, the TGI in the experiment with SK-MEL-2 melanoma, with PC-3 prostate, in the experiment on UACC-62 melanoma and in the experiment on SN12C renal was above 100 µM throughout.

Regarding `COC(=O)[C@]1(c2cc3ccccc3[nH]2)CC2CN(C(=O)OCc3ccccc3)C1CC2=O` (some centres undefined), the TGI in the experiment with COLO 205 colon is 30.1 µM; with SF-295 CNS, above 100 µM; with T-47D breast, 76.2 µM; in the experiment with SK-MEL-28 melanoma, above 100 µM; in the experiment with 786-0 renal, above 100 µM; in the experiment on MDA-MB-231 breast it was 32.4 µM. The TGI in the experiment with SK-MEL-2 melanoma is 38.2 µM; in the experiment on PC-3 prostate it was 39 µM; with UACC-62 melanoma, 58.7 µM; in the experiment with SN12C renal, 80.6 µM.

`CN(C)CCOc1ccc(-c2c(Oc3ccccc3)c(=O)oc3ccccc23)cc1`: the TGI in the experiment on COLO 205 colon amounted to 24.7 µM; in the experiment on SF-295 CNS it was 17.2 µM; in the experiment on T-47D breast, 44.1 µM; in the experiment with SK-MEL-28 melanoma, 25.5 µM; with 786-0 renal, 20.5 µM; in the experiment on MDA-MB-231 breast, 18.8 µM. Further, the TGI in the experiment on SK-MEL-2 melanoma was 28.9 µM; with PC-3 prostate, 23.1 µM; with UACC-62 melanoma, 27.2 µM; in the experiment on SN12C renal it was 26.9 µM.

As to `O[C@@H]1CCC[C@@H]2NC[C@@H](c3ccc4c(c3)OCO4)[C@H]12`, the TGI with COLO 205 colon, with SF-295 CNS, in the experiment on T-47D breast, in the experiment on SK-MEL-28 melanoma, in the experiment on 786-0 renal and in the experiment on MDA-MB-231 breast was above 100 µM in each case. The TGI in the experiment on SK-MEL-2 melanoma, with PC-3 prostate and in the experiment on UACC-62 melanoma was above 100 µM each time.

As to `C=CC(=O)N1C/C(=C\c2ccc([N+](=O)[O-])cc2)C(=O)/C(=C/c2ccc([N+](=O)[O-])cc2)C1`, the TGI came to 0.273 µM in the experiment with COLO 205 colon; 0.603 µM in the experiment with SF-295 CNS; 1.79 µM with T-47D breast; 1.74 µM in the experiment with SK-MEL-28 melanoma; 0.249 µM with 786-0 renal; 0.278 µM in the experiment on MDA-MB-231 breast. For the same compound, the TGI worked out at 1.8 µM in the experiment with SK-MEL-2 melanoma, 0.361 µM with PC-3 prostate, 0.688 µM in the experiment with UACC-62 melanoma and 0.772 µM in the experiment with SN12C renal.

In the case of `COC1=C(C)C(=O)C2=C(C1=O)C1C3CC4=C(C(=O)C(OC)=C(C)C4=O)C(CNC(=O)C(C)O)N3C(C#N)C(C2)N1C` (centres undefined), the TGI in the experiment on COLO 205 colon is below 0.01 µM; in the experiment on SF-295 CNS, 0.753 µM; in the experiment with T-47D breast, below 0.01 µM; with SK-MEL-28 melanoma, below 0.0217 µM; in the experiment on 786-0 renal it was 1.24 µM; in the experiment with MDA-MB-231 breast it was 0.0178 µM. The TGI in the experiment on SK-MEL-2 melanoma was below 0.01 µM; in the experiment with PC-3 prostate, 1.74 µM; in the experiment on UACC-62 melanoma, below 0.01 µM; in the experiment with SN12C renal it was 1.72 µM.

With `CC(=O)O[C@H]1C[C@@H](OC(C)=O)[C@@](C)(O)[C@@H]2[C@@H](OC(C)=O)[C@@]3(O)[C@H](/C=C(/CO)[C@H]4O[C@H]4[C@@H](OC(C)=O)[C@@]12C)OC(=O)[C@@H]3C`, the TGI is above 25 µM in the experiment with COLO 205 colon; 16.8 µM in the experiment on SF-295 CNS; above 25 µM with T-47D breast; above 25 µM with SK-MEL-28 melanoma; above 25 µM with 786-0 renal; above 25 µM in the experiment on MDA-MB-231 breast. Besides, the TGI with SK-MEL-2 melanoma, in the experiment with PC-3 prostate, with UACC-62 melanoma and in the experiment with SN12C renal was above 25 µM throughout.

In the case of `CCC(CC)(CO)CNc1cc(Cl)nc(N)n1`, the TGI in the experiment on COLO 205 colon, in the experiment on SF-295 CNS, in the experiment with T-47D breast, in the experiment with SK-MEL-28 melanoma, in the experiment on 786-0 renal and in the experiment on MDA-MB-231 breast was above 100 µM throughout. Moreover, the TGI in the experiment with SK-MEL-2 melanoma, with PC-3 prostate, with UACC-62 melanoma and in the experiment with SN12C renal was above 100 µM each time.

`O=[N+]([O-])c1cc2ccc(N(CCO)CCO)nc2nc1N(CCO)CCO`: the TGI with COLO 205 colon, in the experiment with SF-295 CNS, in the experiment with T-47D breast, in the experiment on SK-MEL-28 melanoma, in the experiment on 786-0 renal and with MDA-MB-231 breast was above 100 µM each time. Moreover, the TGI in the experiment with SK-MEL-2 melanoma, in the experiment on PC-3 prostate, in the experiment with UACC-62 melanoma and with SN12C renal was above 100 µM throughout.
